Data reported in patent US7312323B2, “Enzymes and polynucleotides encoding the same” (The Horticulture and Food Research Institute of New Zealand …, priority 2002, dated 2007).

Legend:
[1] = Thermal rearrangement, pentane extracts from purified protein injected at different port temperatures; assay type: physicochemical
Procedure: Dynamic headspace methods were also used to collect the headspace volatiles from the purified extracts on to 100 mg Chromosorb 105 adsorbent traps. The protein was placed into 50 mL Quickfit® test tubes, which were fitted with a headspace adaptor with an air inlet and outlet. Volatiles were collected onto the Chromosorb 105 adsorbent traps, which were fitted to the air outlet port of each adaptor. The volatiles were purged from the vessel onto the traps with clean air at 50 mL min^−1 for 18 hours. The traps were stored at −15° C. for up to one week, and then subjected to GC-FIDIMS analysis. Finally, pentane extracts were taken from the purified extracts. An aliquot (2.5 ml) of pentane was added to the purified extracts and was left to extract for 18 hours. The pentane was removed and then concentrated with a stream of N2 gas. This was then injected onto the GC-MS at 150° C.
More light can be shed on the possibility of rearrangement of the products using pentane extraction.
In an experiment to test for thermal rearrangement, injections of pentane extract from purified protein were made at temperatures of 125, 150 and 210° C.; or pentane extract from Actinidia flowers were made at temperatures of 100, 125, 150 and 210° C. […] Germacrene B modulated slightly in response to temperature shifts although no gamma-elemene was found as might be predicted. In addition the predicted precursor for delta elemene—germacrene C (Feger et al., Flavour and Fragrance Journal 15: 170-173 (2000)) was not detected at any time. Germacrene A was also not detected at any time. […] Elemol may arise from further rearrangements of delta-elemene or from other elemene sources or from hedycaryol (Chamblee et al., J. Essent. Oil Res. 9: 127-132 (1997)). No GC-MS traces in any experiments indicated evidence for germacrene-C or for hedycaryol.

[2] = Thermal rearrangement, pentane extracts from Actinidia flowers injected at different port temperatures; assay type: physicochemical
Procedure: Whole flowers of the same plants were also harvested at anthesis in 2000. 18.6 g and 21 g of flowers from a mixture of developmental stages were placed in 2× Quickfit® Erlenmeyer flasks as above. Volatiles were collected onto a Chromosorb adsorbent trap in duplicate, after the system had been equilibrated for 30 min at room temperature (ca. 23° C.), by purging onto the trap with clean air at 25 mL min^−1 for 60 minutes. The trap was stored at −15° C. for one week and then analysed by GC-FD/MS. The same petals (1.99 g) were then extracted with pentane-ether (2 ml) and stored at −20° C. until analysed. The pentane (GPR, BDH) had been purified by distillation and by passing through a column of activated alumina. Pentane extracts were reduced by rotary evaporation and were dried by passing through a small column of anhydrous MgSO4 before the volume was reduced to ca. 50 μL under a gentle stream of nitrogen. The extract was analysed by GC-FID/MS.
GC-MS Analysis of dynamic headspace samples and pentane extracts: Volatile compounds were thermally desorbed from the headspace traps at 150° C. and were cryo-focussed at the beginning of the GC column (Young, 1981). The column outlet was split between the GC (Hewlett Packard 5890) FID detector (for quantitation) and VG-70SE (VG-Micromass, Manchester, U.K.) mass spectrometer (for component identification) with an electron impact ionisation of 70 eV. Separations were carried out in a 30 m×0.32 mm i.d., 0.5 μn DBWax capillary column (J & W Scientific, Folsom, USA), starting at 30° C. for 6 min, increasing by 3° C. min^−1 to 102° C., 5° C. min^−1 to 210° C. and held for 5 min. Injector temperature was 210° C. The carrier gas was He at a flow rate of ˜30 cm s^−1, and the FID and mass spectrometer transfer line were at 210° C. Quantification of compounds was carried out using an average detector response based on methyl butanoate, ethyl butanoate, hexanol and methyl benzoate. Components were identified by comparison with spectra in the mass spectral database (NIST 1998, Wiley 7 and an in-house database), retention indices (in-house database) and in some cases direct GC-MS comparison with authentic standards. Separations for the earlier 2000 samples were carried out in the same manner as above except the programme started at 30° C. for 6 min, increasing by 3° C. min^−1 to 102° C., 5° C. min^−1 to 190° C. and held for 5 min. Analysis of the pentane extract used a programme of 2 min at 40° C., 5° C. min^−1 to 200° C., 15° C. m^−1 to 240° C. and held for 20 min. For genotype 32-10-07a: the GC-MS was programmed to start at 30° C. for 2 min, increasing by 3° C. min^−1 to 50° C., 5° C. min^−1 to 130° C., 10° C. min^−1 to 240° C. and held for 2 min. Injector temperature was 240° C.
In an experiment to test for thermal rearrangement, injections of pentane extract from purified protein were made at temperatures of 125, 150 and 210° C.; or pentane extract from Actinidia flowers were made at temperatures of 100, 125, 150 and 210° C.

[3] = Bülow and König 2000; cited from earlier work
Heliothis virescens = conditions: Mozuraitis et al. 2002; cited from earlier work
Periplanata americana L. = conditions: Nishino et al. 1977; cited from earlier work
[4] = injection port temperature 125 °C
[5] = injection port temperature 150 °C
[6] = injection port temperature 210 °C

C=C1C=CC(C(C)C)CCC(C)=CCC1 (stereo not shown) [Germacrene D, 7-iso-propyl-10-methyl-4-methylene-cyclodeca-5,10-diene]
Peak Area [1, 4]: 4.22 × 10^6 | Peak Area [1, 5]: 4.90 × 10^6 | Peak Area [1, 6]: 3.91 × 10^6 | Peak Area ([2]; injection port temperature 100 °C): 2.85 × 10^7 ^ | Peak Area [2, 4]: 3.78 × 10^7 | Peak Area [2, 5]: 3.87 × 10^7 | Peak Area [2, 6]: 2.42 × 10^7 | temperature up to which stable [3]: up to 180 °C | effect on moth behaviour (Heliothis virescens): increase attraction of and oviposition | effect on male cockroach (Periplanata americana L.): sex stimulant
